Assay results taken from US6903081B2, “Phosphoramidates and methods therefor” (Purdue Research Foundation, priority 2000, dated 2005).

Assay: Chemical activation by sodium dithionite reduction monitored by 31P nmr
Assay type: physicochemical
Conditions: sodium dithionite in aqueous buffer/acetonitrile at 37° C.
Method: The thymidine phosphoramidate was activated by reduction of the nitrofuryl group with sodium dithionite in aqueous buffer/acetonitrile at 37° C., and the reaction was monitored by ^31P nmr.

Structure (SMILES): Cc1cn([C@H]2C[C@H](O)[C@@H](COP(N)(=O)O)O2)c(=O)[nH]c1=O [thymidine phosphoramidate]
- time until the phosphoramidate anion resonance had disappeared (thymidine-5′-phosphate exclusive product): ten
